Test: mn = molality of the nth substance listed, in mol/kg
Settings: 350 kPa, Liquid, Extra sensitive DSC

OC[C@H]1O[C@@](CO)(O[C@H]2O[C@H](CO)[C@@H](O)[C@H](O)[C@H]2O)[C@@H](O)[C@@H]1O [D-sucrose] + O
Settings	apparent molar heat capacity [J/K/mol]
278.15 K, m1 = 0.01461	532.5
278.15 K, m1 = 0.03048	533.5
278.15 K, m1 = 0.06172	533.8
278.15 K, m1 = 0.1302	535.7
278.15 K, m1 = 0.2486	538.6
278.15 K, m1 = 0.4969	544.2
278.15 K, m1 = 0.746	548.9
278.15 K, m1 = 0.9972	554.2
278.15 K, m1 = 1.489	560.3
278.15 K, m1 = 1.99	566.8
278.15 K, m1 = 2.99	577.9
278.15 K, m1 = 3.995	587.9
283.15 K, m1 = 0.01461	567.4
283.15 K, m1 = 0.03048	567.3
283.15 K, m1 = 0.06172	568.9
283.15 K, m1 = 0.1302	569.8
283.15 K, m1 = 0.2486	572
283.15 K, m1 = 0.4969	575.9
283.15 K, m1 = 0.746	579.3
283.15 K, m1 = 0.9972	583.7
283.15 K, m1 = 1.489	587.9
283.15 K, m1 = 1.99	593.1
283.15 K, m1 = 2.99	601.8
283.15 K, m1 = 3.995	610
288.15 K, m1 = 0.01461	596.7
288.15 K, m1 = 0.03048	596.6
288.15 K, m1 = 0.06172	597.7
288.15 K, m1 = 0.1302	598.1
288.15 K, m1 = 0.2486	599.7
288.15 K, m1 = 0.4969	602.4
288.15 K, m1 = 0.746	604.7
288.15 K, m1 = 0.9972	608.3
288.15 K, m1 = 1.489	611
288.15 K, m1 = 1.99	614.9
288.15 K, m1 = 2.99	621.5
288.15 K, m1 = 3.995	628.2
293.15 K, m1 = 0.01461	622
293.15 K, m1 = 0.03048	621.8
293.15 K, m1 = 0.06172	622.6
293.15 K, m1 = 0.1302	622.7
293.15 K, m1 = 0.2486	623.7
293.15 K, m1 = 0.4969	625.6
293.15 K, m1 = 0.746	627.1
293.15 K, m1 = 0.9972	629.8
293.15 K, m1 = 1.489	631.4
293.15 K, m1 = 1.99	634.1
293.15 K, m1 = 2.99	639
293.15 K, m1 = 3.995	644.5
298.15 K, m1 = 0.01461	642.1
298.15 K, m1 = 0.03048	642.9
298.15 K, m1 = 0.06172	644
298.15 K, m1 = 0.1302	643.9
298.15 K, m1 = 0.2486	644.7
298.15 K, m1 = 0.4969	646
298.15 K, m1 = 0.746	646.9
298.15 K, m1 = 0.9972	649.1
298.15 K, m1 = 1.489	649.6
298.15 K, m1 = 1.99	651.6
298.15 K, m1 = 2.99	655.2
298.15 K, m1 = 3.995	659.4
303.15 K, m1 = 0.01461	660.7
303.15 K, m1 = 0.03048	662.1
303.15 K, m1 = 0.06172	663
303.15 K, m1 = 0.1302	663.2
303.15 K, m1 = 0.2486	663.8
303.15 K, m1 = 0.4969	664.5
303.15 K, m1 = 0.746	665.1
303.15 K, m1 = 0.9972	666.8
303.15 K, m1 = 1.489	666.5
303.15 K, m1 = 1.99	667.8
303.15 K, m1 = 2.99	670.4
303.15 K, m1 = 3.995	673.5
308.15 K, m1 = 0.01461	679
308.15 K, m1 = 0.03048	679.1
308.15 K, m1 = 0.06172	680.3
308.15 K, m1 = 0.1302	680.3
308.15 K, m1 = 0.2486	680.6
308.15 K, m1 = 0.4969	680.9
308.15 K, m1 = 0.746	681.1
308.15 K, m1 = 0.9972	682.4
308.15 K, m1 = 1.489	681.8
308.15 K, m1 = 1.99	682.4
308.15 K, m1 = 2.99	683.9
308.15 K, m1 = 3.995	686.3
313.15 K, m1 = 0.01461	695.3
313.15 K, m1 = 0.03048	695.1
313.15 K, m1 = 0.06172	696.3
313.15 K, m1 = 0.1302	696.2
313.15 K, m1 = 0.2486	696.3
313.15 K, m1 = 0.4969	696.3
313.15 K, m1 = 0.746	696.2
313.15 K, m1 = 0.9972	697.3
313.15 K, m1 = 1.489	696.3
313.15 K, m1 = 1.99	696.4
313.15 K, m1 = 2.99	697.1
313.15 K, m1 = 3.995	698.8
318.15 K, m1 = 0.01461	709.1
318.15 K, m1 = 0.03048	709.4
318.15 K, m1 = 0.06172	710.4
318.15 K, m1 = 0.1302	710.3
318.15 K, m1 = 0.2486	710.3
318.15 K, m1 = 0.4969	710.1
318.15 K, m1 = 0.746	709.8
318.15 K, m1 = 0.9972	710.5
318.15 K, m1 = 1.489	709.1
318.15 K, m1 = 1.99	709.1
318.15 K, m1 = 2.99	709.1
318.15 K, m1 = 3.995	710.2
323.15 K, m1 = 0.01461	722.3
323.15 K, m1 = 0.03048	722.4
323.15 K, m1 = 0.06172	723.4
323.15 K, m1 = 0.1302	723.1
323.15 K, m1 = 0.2486	723
323.15 K, m1 = 0.4969	722.6
323.15 K, m1 = 0.746	722
323.15 K, m1 = 0.9972	722.7
323.15 K, m1 = 1.489	721
323.15 K, m1 = 1.99	720.7
323.15 K, m1 = 2.99	720.3
323.15 K, m1 = 3.995	720.8
328.15 K, m1 = 0.01461	735.7
328.15 K, m1 = 0.03048	735.3
328.15 K, m1 = 0.06172	735.9
328.15 K, m1 = 0.1302	735.3
328.15 K, m1 = 0.2486	735.1
328.15 K, m1 = 0.4969	734.6
328.15 K, m1 = 0.746	733.9
328.15 K, m1 = 0.9972	734.3
328.15 K, m1 = 1.489	732.5
328.15 K, m1 = 1.99	731.9
328.15 K, m1 = 2.99	730.9
328.15 K, m1 = 3.995	731.1
333.15 K, m1 = 0.01461	746.9
333.15 K, m1 = 0.03048	746.6
333.15 K, m1 = 0.06172	747
333.15 K, m1 = 0.1302	746.5
333.15 K, m1 = 0.2486	746.2
333.15 K, m1 = 0.4969	745.4
333.15 K, m1 = 0.746	744.6
333.15 K, m1 = 0.9972	745
333.15 K, m1 = 1.489	742.9
333.15 K, m1 = 1.99	742.1
333.15 K, m1 = 2.99	740.7
333.15 K, m1 = 3.995	740.5
338.15 K, m1 = 0.01461	756.6
338.15 K, m1 = 0.03048	757.3
338.15 K, m1 = 0.06172	757.4
338.15 K, m1 = 0.1302	756.8
338.15 K, m1 = 0.2486	756.4
338.15 K, m1 = 0.4969	755.6
338.15 K, m1 = 0.746	754.7
338.15 K, m1 = 0.9972	754.9
338.15 K, m1 = 1.489	752.7
338.15 K, m1 = 1.99	751.7
338.15 K, m1 = 2.99	750
338.15 K, m1 = 3.995	749.3
343.15 K, m1 = 0.01461	765.9
343.15 K, m1 = 0.03048	766.2
343.15 K, m1 = 0.06172	766.8
343.15 K, m1 = 0.1302	766.3
343.15 K, m1 = 0.2486	766
343.15 K, m1 = 0.4969	765.2
343.15 K, m1 = 0.746	764.2
343.15 K, m1 = 0.9972	764.2
343.15 K, m1 = 1.489	762
343.15 K, m1 = 1.99	760.8
343.15 K, m1 = 2.99	759
343.15 K, m1 = 3.995	758
348.15 K, m1 = 0.01461	774.3
348.15 K, m1 = 0.03048	775.2
348.15 K, m1 = 0.06172	775.7
348.15 K, m1 = 0.1302	775.1
348.15 K, m1 = 0.2486	774.7
348.15 K, m1 = 0.4969	774
348.15 K, m1 = 0.746	772.8
348.15 K, m1 = 0.9972	772.7
348.15 K, m1 = 1.489	770.4
348.15 K, m1 = 1.99	769.1
348.15 K, m1 = 2.99	767
348.15 K, m1 = 3.995	765.8
353.15 K, m1 = 0.01461	781.7
353.15 K, m1 = 0.03048	783.6
353.15 K, m1 = 0.06172	784
353.15 K, m1 = 0.1302	783.3
353.15 K, m1 = 0.2486	783
353.15 K, m1 = 0.4969	782.2
353.15 K, m1 = 0.746	780.9
353.15 K, m1 = 0.9972	780.7
353.15 K, m1 = 1.489	778.3
353.15 K, m1 = 1.99	777
353.15 K, m1 = 2.99	774.6
353.15 K, m1 = 3.995	773.2
358.15 K, m1 = 0.01461	791
358.15 K, m1 = 0.03048	791.1
358.15 K, m1 = 0.06172	791.9
358.15 K, m1 = 0.1302	791.1
358.15 K, m1 = 0.2486	790.6
358.15 K, m1 = 0.4969	789.8
358.15 K, m1 = 0.746	788.4
358.15 K, m1 = 0.9972	788.2
358.15 K, m1 = 1.489	785.7
358.15 K, m1 = 1.99	784.3
358.15 K, m1 = 2.99	781.7
358.15 K, m1 = 3.995	780
363.15 K, m1 = 0.01461	797.3
363.15 K, m1 = 0.03048	797.3
363.15 K, m1 = 0.06172	798
363.15 K, m1 = 0.1302	797.4
363.15 K, m1 = 0.2486	797.1
363.15 K, m1 = 0.4969	796.6
363.15 K, m1 = 0.746	795.1
363.15 K, m1 = 0.9972	794.7
363.15 K, m1 = 1.489	792.3
363.15 K, m1 = 1.99	790.9
363.15 K, m1 = 2.99	788.1
363.15 K, m1 = 3.995	786.3
